From US20110082130A1 (LIGAND PHARMACEUTICALS, INC., priority 2006, published 2011)

biological target: T1, chimeric human H3 receptor (Homo sapiens, UniProt Q9Y5N1); assay: Chimeric human H3 receptor screening GTP binding assay (inhibition of histamine-stimulated GTP-gamma35S binding, Example 8); format: biochemical; conditions: 4 μM of the compound, 1 μM histamine, "†" in Ki of Table II, read-out: percent inhibition of the signal obtained with 1 μM histamine
T1 construct: made in house; host or cells: Sf9 insect cells (baculovirus); P2 membrane preparation
Summary of the method: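 Sf9 membranes co-expressing chimeric human H3 receptor and heterotrimeric G-protein, 35 μg per reaction, incubated 60 min at room temperature with 4 μM compound, 1 μM histamine, 10 μM GDP and […] GTP-gamma35S at pH 7.4. Filter-bound radioactivity counted. Result expressed as percent inhibition of the histamine signal after subtracting non-specific binding (10 μM GTP-gammaS).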

T1 sequence (Q9Y5N1 with tags, fused parts or gaps): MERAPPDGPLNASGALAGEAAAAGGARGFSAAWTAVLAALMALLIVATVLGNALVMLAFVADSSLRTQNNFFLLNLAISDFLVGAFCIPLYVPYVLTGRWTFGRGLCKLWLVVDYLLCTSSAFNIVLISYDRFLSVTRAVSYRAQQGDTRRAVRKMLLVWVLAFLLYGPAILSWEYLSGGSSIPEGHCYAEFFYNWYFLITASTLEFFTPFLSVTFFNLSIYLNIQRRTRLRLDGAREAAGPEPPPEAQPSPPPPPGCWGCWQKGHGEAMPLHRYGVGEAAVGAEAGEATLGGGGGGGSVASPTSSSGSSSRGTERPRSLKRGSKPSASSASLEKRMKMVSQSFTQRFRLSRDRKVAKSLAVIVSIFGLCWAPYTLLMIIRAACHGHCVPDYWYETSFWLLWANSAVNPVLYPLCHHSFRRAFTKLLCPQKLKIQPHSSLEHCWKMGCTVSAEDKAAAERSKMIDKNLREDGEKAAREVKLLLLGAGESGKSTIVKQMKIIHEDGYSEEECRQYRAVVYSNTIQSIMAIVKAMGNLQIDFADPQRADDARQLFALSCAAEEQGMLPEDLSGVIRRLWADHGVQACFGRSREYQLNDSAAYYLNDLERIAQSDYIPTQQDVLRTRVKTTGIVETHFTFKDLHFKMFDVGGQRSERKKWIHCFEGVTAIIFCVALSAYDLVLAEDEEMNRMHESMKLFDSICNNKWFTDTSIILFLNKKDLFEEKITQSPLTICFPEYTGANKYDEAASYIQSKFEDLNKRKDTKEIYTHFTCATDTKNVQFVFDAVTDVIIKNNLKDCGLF

Inhibition at 4 µM, ≥ 90%:
CCCCc1ccc(-c2ccc3c(c2)CCN(CC(=O)N2CCN(C4CCCC4)CC2)C3)cc1 [Compound 452, 6-(4-butylphenyl)-2-[2-(4-cyclopentylpiperazin-1-yl)-2-oxoethyl]-1,2,3,4-tetrahydroisoquinoline]
CCCCc1ccc(-c2ccc3c(c2)CCN(CC(=O)N2CCN(C4CCCCC4)CC2)C3)cc1 [Compound 453, 6-(4-butylphenyl)-2-[2-(4-cyclohexylpiperazin-1-yl)-2-oxoethyl]-1,2,3,4-tetrahydroisoquinoline]
CCCCc1ccc(-c2ccc3c(c2)CCN(CC(=O)N2CCN(C(C)C)CC2)C3)cc1 [Compound 454, 6-(4-butylphenyl)-2-[2-(4-isopropylpiperazin-1-yl)-2-oxoethyl]-1,2,3,4-tetrahydroisoquinoline]
Cc1cc(C)cc(-c2ccc3c(c2)CCN(CC(=O)N2CCN(C4CCC4)CC2)C3)c1 [Compound 455, 2-[2-(4-cyclobutylpiperazin-1-yl)-2-oxoethyl]-6-(3,5-dimethylphenyl)-1,2,3,4-tetrahydroisoquinoline]
Cc1cc(C)cc(-c2ccc3c(c2)CCN(CC(=O)N2CCN(C4CCCC4)CC2)C3)c1 [Compound 456, 2-[2-(4-cyclopentylpiperazin-1-yl)-2-oxoethyl]-6-(3,5-dimethylphenyl)-1,2,3,4-tetrahydroisoquinoline]
Cc1cc(C)cc(-c2ccc3c(c2)CCN(CC(=O)N2CCN(C4CCCCC4)CC2)C3)c1 [Compound 457, 2-[2-(4-cyclohexylpiperazin-1-yl)-2-oxoethyl]-6-(3,5-dimethylphenyl)-1,2,3,4-tetrahydroisoquinoline]
Cc1cc(C)cc(-c2ccc3c(c2)CCN(CC(=O)N2CCN(C(C)C)CC2)C3)c1 [Compound 458, 6-(3,5-dimethylphenyl)-2-[2-(4-isopropylpiperazin-1-yl)-2-oxoethyl]-1,2,3,4-tetrahydroisoquinoline]
CCc1ccc(-c2ccc3c(c2)CCN(CC(=O)N2CCN(C4CCC4)CC2)C3)cc1 [Compound 459, 2-[2-(4-cyclobutylpiperazin-1-yl)-2-oxoethyl]-6-(4-ethylphenyl)-1,2,3,4-tetrahydroisoquinoline]
CCc1ccc(-c2ccc3c(c2)CCN(CC(=O)N2CCN(C4CCCC4)CC2)C3)cc1 [Compound 460, 2-[2-(4-cyclopentylpiperazin-1-yl)-2-oxoethyl]-6-(4-ethylphenyl)-1,2,3,4-tetrahydroisoquinoline]
CCc1ccc(-c2ccc3c(c2)CCN(CC(=O)N2CCN(C4CCCCC4)CC2)C3)cc1 [Compound 461, 2-[2-(4-cyclohexylpiperazin-1-yl)-2-oxoethyl]-6-(4-ethylphenyl)-1,2,3,4-tetrahydroisoquinoline]
CCc1ccc(-c2ccc3c(c2)CCN(CC(=O)N2CCN(C(C)C)CC2)C3)cc1 [Compound 462, 6-(4-ethylphenyl)-2-[2-(4-isopropylpiperazin-1-yl)-2-oxoethyl]-1,2,3,4-tetrahydroisoquinoline]
CCCc1ccc(-c2ccc3c(c2)CCN(CC(=O)N2CCN(C4CCC4)CC2)C3)cc1 [Compound 463, 2-[2-(4-cyclobutylpiperazin-1-yl)-2-oxoethyl]-6-(4-propylphenyl)-1,2,3,4-tetrahydroisoquinoline]
CCCc1ccc(-c2ccc3c(c2)CCN(CC(=O)N2CCN(C4CCCC4)CC2)C3)cc1 [Compound 464, 2-[2-(4-cyclopentylpiperazin-1-yl)-2-oxoethyl]-6-(4-propylphenyl)-1,2,3,4-tetrahydroisoquinoline]
CCCc1ccc(-c2ccc3c(c2)CCN(CC(=O)N2CCN(C4CCCCC4)CC2)C3)cc1 [Compound 465, 2-[2-(4-cyclohexylpiperazin-1-yl)-2-oxoethyl]-6-(4-propylphenyl)-1,2,3,4-tetrahydroisoquinoline]
CCCc1ccc(-c2ccc3c(c2)CCN(CC(=O)N2CCN(C(C)C)CC2)C3)cc1 [Compound 466, 2-[2-(4-isopropylpiperazin-1-yl)-2-oxoethyl]-6-(4-propylphenyl)-1,2,3,4-tetrahydroisoquinoline]
CCc1cccc(-c2ccc3c(c2)CCN(CC(=O)N2CCN(C4CCC4)CC2)C3)c1 [Compound 467, 2-[2-(4-cyclobutylpiperazin-1-yl)-2-oxoethyl]-6-(3-ethylphenyl)-1,2,3,4-tetrahydroisoquinoline]
CCc1cccc(-c2ccc3c(c2)CCN(CC(=O)N2CCN(C4CCCC4)CC2)C3)c1 [Compound 468, 2-[2-(4-cyclopentylpiperazin-1-yl)-2-oxoethyl]-6-(3-ethylphenyl)-1,2,3,4-tetrahydroisoquinoline]
CCc1cccc(-c2ccc3c(c2)CCN(CC(=O)N2CCN(C4CCCCC4)CC2)C3)c1 [Compound 469, 2-[2-(4-cyclohexylpiperazin-1-yl)-2-oxoethyl]-6-(3-ethylphenyl)-1,2,3,4-tetrahydroisoquinoline]
CCc1cccc(-c2ccc3c(c2)CCN(CC(=O)N2CCN(C(C)C)CC2)C3)c1 [Compound 470, 6-(3-ethylphenyl)-2-[2-(4-isopropylpiperazin-1-yl)-2-oxoethyl]-1,2,3,4-tetrahydroisoquinoline]
CC(C)(C)c1ccc(-c2ccc3c(c2)CCN(CC(=O)N2CCN(C4CCC4)CC2)C3)cc1 [Compound 471, 6-(4-tert-butylphenyl)-2-[2-(4-cyclobutylpiperazin-1-yl)-2-oxoethyl]-1,2,3,4-tetrahydroisoquinoline]
CC(C)(C)c1ccc(-c2ccc3c(c2)CCN(CC(=O)N2CCN(C4CCCC4)CC2)C3)cc1 [Compound 472, 6-(4-tert-butylphenyl)-2-[2-(4-cyclopentylpiperazin-1-yl)-2-oxoethyl]-1,2,3,4-tetrahydroisoquinoline]
CC(C)(C)c1ccc(-c2ccc3c(c2)CCN(CC(=O)N2CCN(C4CCCCC4)CC2)C3)cc1 [Compound 473, 6-(4-tert-butylphenyl)-2-[2-(4-cyclohexylpiperazin-1-yl)-2-oxoethyl]-1,2,3,4-tetrahydroisoquinoline]
CC(C)N1CCN(C(=O)CN2CCc3cc(-c4ccc(C(C)(C)C)cc4)ccc3C2)CC1 [Compound 474, 6-(4-tert-butylphenyl)-2-[2-(4-isopropylpiperazin-1-yl)-2-oxoethyl]-1,2,3,4-tetrahydroisoquinoline]
COc1cccc(-c2ccc3c(c2)CCN(CC(=O)N2CCN(C4CCCCC4)CC2)C3)c1 [Compound 477, 2-[2-(4-cyclohexylpiperazin-1-yl)-2-oxoethyl]-6-(3-methoxyphenyl)-1,2,3,4-tetrahydroisoquinoline]
O=C(CN1CCc2cc(-c3ccc(OC(F)(F)F)cc3)ccc2C1)N1CCN(C2CCC2)CC1 [Compound 478, 2-[2-(4-cyclobutylpiperazin-1-yl)-2-oxoethyl]-6-[4-(trifluoromethoxy)phenyl]-1,2,3,4-tetrahydroisoquinoline]
O=C(CN1CCc2cc(-c3ccc(OC(F)(F)F)cc3)ccc2C1)N1CCN(C2CCCC2)CC1 [Compound 479, 2-[2-(4-cyclopentylpiperazin-1-yl)-2-oxoethyl]-6-[4-(trifluoromethoxy)phenyl]-1,2,3,4-tetrahydroisoquinoline]
O=C(CN1CCc2cc(-c3ccc(OC(F)(F)F)cc3)ccc2C1)N1CCN(C2CCCCC2)CC1 [Compound 480, 2-[2-(4-cyclohexylpiperazin-1-yl)-2-oxoethyl]-6-[4-(trifluoromethoxy)phenyl]-1,2,3,4-tetrahydroisoquinoline]
CC(C)N1CCN(C(=O)CN2CCc3cc(-c4ccc(OC(F)(F)F)cc4)ccc3C2)CC1 [Compound 481, 2-[2-(4-isopropylpiperazin-1-yl)-2-oxoethyl]-6-[4-(trifluoromethoxy)phenyl]-1,2,3,4-tetrahydroisoquinoline]

same assay, conditions: Table II "Ki", symbol †, 4 μM of the compound, 1 μM histamine, read-out: percent inhibition of the signal obtained with 1 μM histamine

Inhibition at 4 µM, ≥ 90%:
CCOc1cccc(-c2ccc3c(c2)CCN(CC(=O)N2CCN(C4CCCCC4)CC2)C3)c1 [Compound 484, 2-[2-(4-cyclohexylpiperazin-1-yl)-2-oxoethyl]-6-(3-ethoxyphenyl)-1,2,3,4-tetrahydroisoquinoline]
CCOc1cccc(-c2ccc3c(c2)CCN(CC(=O)N2CCN(C(C)C)CC2)C3)c1 [Compound 485, 6-(3-ethoxyphenyl)-2-[2-(4-isopropylpiperazin-1-yl)-2-oxoethyl]-1,2,3,4-tetrahydroisoquinoline]
O=C(CN1CCc2cc(-c3ccc(Oc4ccccc4)cc3)ccc2C1)N1CCN(C2CCC2)CC1 [Compound 486, 2-[2-(4-cyclobutylpiperazin-1-yl)-2-oxoethyl]-6-(4-phenoxyphenyl)-1,2,3,4-tetrahydroisoquinoline]
O=C(CN1CCc2cc(-c3ccc(Oc4ccccc4)cc3)ccc2C1)N1CCN(C2CCCC2)CC1 [Compound 487, 2-[2-(4-cyclopentylpiperazin-1-yl)-2-oxoethyl]-6-(4-phenoxyphenyl)-1,2,3,4-tetrahydroisoquinoline]
O=C(CN1CCc2cc(-c3ccc(Oc4ccccc4)cc3)ccc2C1)N1CCN(C2CCCCC2)CC1 [Compound 488, 2-[2-(4-cyclohexylpiperazin-1-yl)-2-oxoethyl]-6-(4-phenoxyphenyl)-1,2,3,4-tetrahydroisoquinoline]
CC(C)N1CCN(C(=O)CN2CCc3cc(-c4ccc(Oc5ccccc5)cc4)ccc3C2)CC1 [Compound 489, 2-[2-(4-isopropylpiperazin-1-yl)-2-oxoethyl]-6-(4-phenoxyphenyl)-1,2,3,4-tetrahydroisoquinoline]
